Results as given in ChEMBL document CHEMBL5030536, “Subtle Chemical Changes Cross the Boundary between Agonist and Antagonist: New A3 Adenosine Receptor Homology Models and Structural Network Analysis Can Predict This Boundary” (J Med Chem, 2021).

How the values were obtained:
[1] = target: T1, Adenosine receptor A1 (Homo sapiens, UniProt P30542); assay: Displacement of [3H]R-PIA from recombinant human A1 adenosine receptor expressed in CHO cell membrane incubated for 60 mins by liquid scintillation counting method; type: cell membranes
T1 sequence (P30542 whole entry): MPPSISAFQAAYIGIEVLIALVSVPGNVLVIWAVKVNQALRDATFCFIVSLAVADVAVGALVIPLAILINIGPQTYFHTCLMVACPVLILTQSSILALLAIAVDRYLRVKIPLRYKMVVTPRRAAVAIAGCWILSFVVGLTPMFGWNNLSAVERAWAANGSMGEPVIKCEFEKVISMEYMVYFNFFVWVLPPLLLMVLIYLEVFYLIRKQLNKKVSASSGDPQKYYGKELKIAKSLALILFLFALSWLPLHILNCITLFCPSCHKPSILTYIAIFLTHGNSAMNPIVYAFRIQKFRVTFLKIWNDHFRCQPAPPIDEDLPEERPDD

[2] = target: T2, Adenosine receptor A3 (Homo sapiens, UniProt P0DMS8); assay: Displacement of [125I]AB-MECA from human A3 adenosine receptor expressed in CHO cell membrane incubated for 60 mins by gamma counter method; type: cell membranes
T2 sequence (P0DMS8 whole entry): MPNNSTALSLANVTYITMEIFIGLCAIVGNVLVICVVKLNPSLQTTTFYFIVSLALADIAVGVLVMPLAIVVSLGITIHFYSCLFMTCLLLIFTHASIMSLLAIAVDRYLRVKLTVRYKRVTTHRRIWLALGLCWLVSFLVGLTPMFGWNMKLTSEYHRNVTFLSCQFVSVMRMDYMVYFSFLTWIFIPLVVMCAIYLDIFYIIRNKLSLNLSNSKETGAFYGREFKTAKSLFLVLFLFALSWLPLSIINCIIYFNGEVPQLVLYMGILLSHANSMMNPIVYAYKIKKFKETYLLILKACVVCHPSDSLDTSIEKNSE

[3] = target: Adenosine receptor A2a (Homo sapiens, UniProt P29274); assay: Displacement of [3H]CGS21680 from recombinant human A2A adenosine receptor expressed in HEK293 cells incubated for 60 mins by liquid scintillation counting method; type: cell-based
Chain of Adenosine receptor A2a (P29274 whole entry): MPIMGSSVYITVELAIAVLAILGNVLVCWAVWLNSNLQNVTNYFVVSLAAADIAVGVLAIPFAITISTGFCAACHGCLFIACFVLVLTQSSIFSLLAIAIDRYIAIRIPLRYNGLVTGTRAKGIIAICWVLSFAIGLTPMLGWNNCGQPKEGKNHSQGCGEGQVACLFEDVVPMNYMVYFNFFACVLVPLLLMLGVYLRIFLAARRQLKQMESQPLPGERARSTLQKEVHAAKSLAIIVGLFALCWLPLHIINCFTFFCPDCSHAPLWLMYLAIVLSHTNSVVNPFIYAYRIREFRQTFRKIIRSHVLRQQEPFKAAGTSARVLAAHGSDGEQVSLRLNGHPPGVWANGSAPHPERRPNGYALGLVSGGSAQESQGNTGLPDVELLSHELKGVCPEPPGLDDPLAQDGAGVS

| Ki [1] [µM] | Ki [2] [µM] | Ki [3] [µM] | SMILES |
| --- | --- | --- | --- |
| 1.67 | – | – | CNc1ncnc2c1ncn2[C@@H]1SC[C@@H](N)[C@H]1O |
| 2.2 | 0.38 | 2.39 | N[C@@H]1CS[C@@H](n2cnc3c(NCc4cccc(I)c4)nc(Cl)nc32)[C@@H]1O |
| 2.45 | 0.26 | 2.3 | N[C@@H]1CS[C@@H](n2cnc3c(NCc4cccc(I)c4)ncnc32)[C@@H]1O |
